Experimental data reported in ChEMBL document CHEMBL4145658, “Modulators of the Cystic Fibrosis Transmembrane Conductance Regulator Protein” (ACS Med Chem Lett, 2018).

Tests used:
Assay type in all cases: cell-based
[1] = test system: Cystic fibrosis transmembrane conductance regulator (Homo sapiens), P13569 [F508del]; test: (§1) Corrector activity at HRP-fused CFTR F508del mutant (unknown origin) expressed in human CFBE41o cells assessed as increase in matured protein levels at cell surface at 20 uM after 18 to 24 hrs in presence of co-corrector 3-[(2R,4R)-4-({[l-(2,2-difluoro-l,3-benzodioxol-5-yl)cyclopropyl]carbonyl}amino)-7-methoxy-3,4-dihydro-2H-chromen-2-yl]benzoic acid by luminescence assay relative to co-corrector
[2] = test system: Cystic fibrosis transmembrane conductance regulator (Homo sapiens), P13569 [F508del]; test: Corrector activity at HRP-fused CFTR F508del mutant (unknown origin) expressed in human CFBE41o cells assessed as increase in matured protein levels at cell surface at 20 uM after 18 to 24 hrs by luminescence assay relative to 3-[(2R,4R)-4-({[l-(2,2-difluoro-l,3-benzodioxol-5-yl)cyclopropyl]carbonyl}amino)-7-methoxy-3,4-dihydro-2H-chromen-2-yl]benzoic acid
[3] = target: T1, Cystic fibrosis transmembrane conductance regulator (Homo sapiens, UniProt P13569, F508DEL); test: Corrector activity at HRP-fused CFTR F508del mutant (unknown origin) expressed in human CFBE41o cells assessed as increase in matured protein levels at cell surface after 18 to 24 hrs by luminescence assay
[4] = target: T1, Cystic fibrosis transmembrane conductance regulator; test: as §1, with “surface” for “surface at 20 uM”, “assay” for “assay relative to co-corrector”

Chain of Cystic fibrosis transmembrane conductance regulator (Homo sapiens), P13569 [F508del] (P13569 as listed by the source): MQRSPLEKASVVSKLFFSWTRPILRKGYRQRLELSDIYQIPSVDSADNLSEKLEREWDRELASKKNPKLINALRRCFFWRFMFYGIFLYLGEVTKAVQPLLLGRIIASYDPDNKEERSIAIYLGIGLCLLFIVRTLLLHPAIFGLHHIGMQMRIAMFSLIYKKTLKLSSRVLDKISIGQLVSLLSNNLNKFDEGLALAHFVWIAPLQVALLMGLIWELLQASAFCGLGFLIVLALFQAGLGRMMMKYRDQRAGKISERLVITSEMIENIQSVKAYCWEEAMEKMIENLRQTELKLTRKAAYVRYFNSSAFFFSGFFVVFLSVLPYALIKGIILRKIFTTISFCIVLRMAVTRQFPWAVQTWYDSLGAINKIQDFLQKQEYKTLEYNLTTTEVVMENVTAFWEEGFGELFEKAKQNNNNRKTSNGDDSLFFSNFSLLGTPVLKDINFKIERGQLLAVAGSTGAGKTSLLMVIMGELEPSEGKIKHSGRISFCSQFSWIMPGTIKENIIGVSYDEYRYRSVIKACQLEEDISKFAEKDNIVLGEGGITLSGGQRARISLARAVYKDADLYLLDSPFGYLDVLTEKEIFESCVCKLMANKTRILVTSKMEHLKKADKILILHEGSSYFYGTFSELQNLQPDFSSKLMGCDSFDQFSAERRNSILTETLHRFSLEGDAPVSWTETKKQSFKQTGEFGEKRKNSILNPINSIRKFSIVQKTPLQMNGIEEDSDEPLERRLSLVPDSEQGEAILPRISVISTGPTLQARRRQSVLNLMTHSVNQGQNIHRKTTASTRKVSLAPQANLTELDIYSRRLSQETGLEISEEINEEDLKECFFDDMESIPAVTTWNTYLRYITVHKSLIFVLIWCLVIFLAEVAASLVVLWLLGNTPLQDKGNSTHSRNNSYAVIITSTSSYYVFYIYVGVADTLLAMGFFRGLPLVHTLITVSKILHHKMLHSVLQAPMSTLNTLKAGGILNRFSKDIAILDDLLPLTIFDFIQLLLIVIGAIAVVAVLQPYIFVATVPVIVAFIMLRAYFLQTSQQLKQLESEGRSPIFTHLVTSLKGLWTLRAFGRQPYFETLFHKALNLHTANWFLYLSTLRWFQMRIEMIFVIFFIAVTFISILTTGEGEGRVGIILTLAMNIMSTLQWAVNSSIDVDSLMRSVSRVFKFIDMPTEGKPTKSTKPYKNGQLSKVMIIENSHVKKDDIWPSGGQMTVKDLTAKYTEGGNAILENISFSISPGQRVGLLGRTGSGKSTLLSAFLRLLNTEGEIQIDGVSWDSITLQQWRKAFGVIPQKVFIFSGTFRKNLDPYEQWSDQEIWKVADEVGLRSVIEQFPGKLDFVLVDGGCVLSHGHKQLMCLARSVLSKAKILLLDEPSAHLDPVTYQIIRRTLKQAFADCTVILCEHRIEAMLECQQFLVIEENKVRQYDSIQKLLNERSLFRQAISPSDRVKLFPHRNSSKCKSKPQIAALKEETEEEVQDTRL
T1 sequence (P13569 as listed by the source): as above

COc1cc2c(cc1CN[C@H]1[C@H](C(C)(C)C)[C@@H](C(=O)O)N(C(=O)C3CCCCC3)[C@H]1c1ccccc1)C(C)(C)CCC2(C)C showed a %max [1] greater than 350%, a %max [2] of 100 to 200% and an EC50 [3] of less than 1000 nM. For the same molecule, the EC50 [4] was less than 1000 nM.

COc1ccc(-c2cccc(F)c2F)cc1CN[C@H]1[C@H](C(C)(C)C)[C@@H](C(=O)O)N(C(=O)C2CCCCC2)[C@H]1c1ccccc1 gave a %max [1] greater than 350%, a %max [2] greater than 200% and an EC50 [3] of less than 1000 nM. The EC50 [4] was less than 1000 nM.

In the case of COc1ccc(C2(C)CCC2)cc1CN[C@H]1[C@H](C(C)(C)C)[C@@H](C(=O)O)N(C(=O)[C@@H]2CCCCO2)[C@H]1c1ccccc1C, the %max [1] is reported as greater than 350%, the %max [2] is reported as greater than 200% and the EC50 [3] is reported as less than 1000 nM. The EC50 [4] was less than 1000 nM.

In the case of COc1ncc(C2CCC2)cc1CN[C@H]1[C@H](C(C)(C)C)[C@@H](C(=O)O)N(C(=O)C2CCCCC2)[C@H]1c1ccccc1C, the %max [1] is reported as greater than 350%, the %max [2] is reported as greater than 200% and the EC50 [3] is reported as less than 1000 nM. The EC50 [4] was less than 1000 nM.

With COc1ccc([Si](C)(C)C)cc1CN[C@H]1[C@H](C(C)(C)C)[C@@H](C(=O)O)N(C(=O)C2CCCCC2)[C@H]1c1ccccc1 the %max [1] was greater than 350%, the %max [2] was greater than 200% and the EC50 [3] was less than 1000 nM. For the same molecule, the EC50 [4] was less than 1000 nM.

CC(C)c1ccccc1[C@H]1[C@@H](NCc2cccc3c2OC(C)(C)C3)[C@H](C(C)(C)C)[C@@H](C(=O)O)N1C(=O)[C@@H]1CCCCO1 gave a %max [1] greater than 350%, a %max [2] greater than 200% and an EC50 [3] of less than 1000 nM. It also gave an EC50 [4] of less than 1000 nM.

For COc1ccc(C(C)(C)C)cc1CN[C@H]1[C@H](C(C)(C)C)[C@@H](C(=O)O)N(C(=O)C2CCCCC2)[C@H]1c1cccnc1N(C)C, the %max [1] was greater than 350%, the %max [2] was greater than 200% and the EC50 [3] was less than 1000 nM. The EC50 [4] was less than 1000 nM.

With COc1ccc(C(C)(C)C)cc1CN[C@H]1[C@H](C(C)(C)C)[C@@H](C(=O)O)N(C(=O)[C@@H]2Cc3ccccc3O2)[C@H]1c1ccccc1 the %max [1] was greater than 350%, the %max [2] was greater than 200% and the EC50 [3] was less than 1000 nM. For the same molecule, the EC50 [4] was less than 1000 nM.

COc1ncc(C(C)C)cc1CN[C@H]1[C@H](C(C)(C)OC)[C@@H](C(=O)O)N(C(=O)C2CCCCC2)[C@H]1c1ccccc1 showed a %max [1] greater than 350%, a %max [2] greater than 200% and an EC50 [3] of 1000 to 10000 nM. For the same molecule, the EC50 [4] was 1000 to 10000 nM.
